The values that follow come from ChEMBL document CHEMBL3988442, “University of Dundee, Small-Polar-MMV Screening Library” (2021).

Some results are limits rather than exact numbers.

Assay [1] in a line: microbe, parasite or virus in culture. The following applies: Mycobacterium tuberculosis, 72 h, read-out: pIC50 (converted).
Assay [2] in a line: microbe, parasite or virus in culture. To be noted: Mycobacterium tuberculosis, 96 h, read-out: pIC50 (converted).

Consider `Cc1cc(N2CCNCC2)nc2ccccc12`, for which the IC50 was 140 µM in assay [1] and 93.7 µM in assay [2].
With `CN(C)c1nc(N)nc(CN2CCCC(c3ccccc3)CC2)n1` (stereo not given), the IC50 in assay [1] and in assay [2] was greater than 50.1 µM in each case.
Take `Cc1ccc(C(=O)NCC(=O)NC(C)(C)C)c(O)c1`: the IC50 in assay [1] and in assay [2] was greater than 501 µM in each case.
With `CC(C)Sc1nnc(-c2cccnc2)o1`, the IC50 is 8.8 µM in assay [1] and 219 µM in assay [2].
The like results for `Cc1n[nH]c(C)c1CCNC(=O)C1CCCN(Cc2ccco2)C1` (stereo not given) were, in that order, greater than 50.1 µM and greater than 50.1 µM.
Taken in the same sequence, the figures for `COC(=O)CSCc1nc(-c2ccc(Cl)cc2)no1` were greater than 50.1 µM and greater than 50.1 µM.
Regarding `COCCN1CCN(C(C)C(=O)Nc2ccnn2C(C)C)CC1` (stereo not given), the IC50 in assay [1] and in assay [2] was greater than 50.1 µM in each case.
Consider `N#Cc1cccc(S(=O)(=O)N2CCCCC2CCN2CCCC2)c1` (stereo not given), for which the values for the IC50 in assay [1] and in assay [2] were 14.3 µM and 8.72 µM, respectively.
As to `CCC1Oc2c(Cl)cccc2NC1=O` (stereo not given), the IC50 in assay [1] and in assay [2] was greater than 501 µM throughout.
With `CCOc1cc(NCc2ncc(C)o2)ncn1`, the IC50 in assay [1] is 153 µM; in assay [2], greater than 501 µM.
The like results for `CC(C)C1CN(C(=O)CCc2ccccn2)CCS1` (stereo not given) were, in that order, 79.8 µM and 95.5 µM.
For `COc1cccc(CNc2cncc(SC)n2)n1`, the figures for the IC50 in assay [1] and in assay [2] were 139 µM and 176 µM, respectively.
As for `Cc1ccc(CN2CCOC3(CCN(C(=O)C4CC=CC4)CC3)C2)cc1`, the IC50 in assay [1] is 30.5 µM; in assay [2] it was 40.9 µM.
Turning to `CCS(=O)(=O)NCCSc1nc2cc(F)c(F)cc2[nH]1`, the IC50 in assay [1] is 468 µM; in assay [2], 448 µM.
Take `Cc1ccc(S(=O)(=O)CCC(=O)NC(N)=O)cc1`: the IC50 is 155 µM in assay [1] and greater than 501 µM in assay [2].
In the case of `O=C(NC1CC1)c1cccc(CNc2ccccn2)c1`, the IC50 is 220 µM in assay [1] and greater than 501 µM in assay [2].
Take `O=C(NCC1CC1)c1cccc2nn[nH]c12`: the IC50 in assay [1] was 233 µM; in assay [2], 256 µM.
Turning to `CN(Cc1c(F)cccc1Cl)S(=O)(=O)N1CCOCC1`, the IC50 was 270 µM in assay [1] and 269 µM in assay [2].
Regarding `Cc1cnn(CCNc2ccc(F)cn2)c1`, the IC50 in assay [1] was 365 µM; in assay [2], greater than 501 µM.
On to `COc1ccc(F)c(CN2CCCC3(CCN(C4CCOCC4)C3)C2)c1` (stereo not given), for which the IC50 in assay [1] was 16.7 µM; in assay [2], 25.1 µM.
On to `Cc1cc(C)nc(N2CCCC(c3cccc(-n4ccnc4)n3)C2)n1` (stereo not given), for which the figures for the IC50 in assay [1] and in assay [2] were 26.9 µM and 28.7 µM, respectively.
As to `Cc1ccc(CN2CCN(C(=O)c3ccc(Br)o3)CC2)cc1`, the results for the IC50 in assay [1] and in assay [2] were 30.4 µM and 37.2 µM, respectively.
In the case of `COc1cc(C(=O)CCN(C)C)cc(OC)c1OC`, the IC50 in assay [1] was 196 µM; in assay [2] it was 338 µM.
The like results for `CC(C)N(CCNC(=O)c1[nH]nc2ccc(I)cc12)C(C)C` were, in that order, 17.9 µM and 15.8 µM.
Take `Cc1nnc(SCCN)s1`: the IC50 in assay [1] and in assay [2] was greater than 501 µM throughout.
For the compound `COc1ccc(C(=O)CCN(C)C)cc1OC`, the values for the IC50 in assay [1] and in assay [2] were 276 µM and 285 µM, respectively.
The like results for `O=C(CC1COCCN1Cc1ccon1)c1cccs1` (stereo not given) were, in that order, 172 µM and greater than 501 µM.
`Cc1cc(NCC2CCS(=O)(=O)C2)n2nc(C)cc2n1` (stereo not given): the IC50 in assay [1] and in assay [2] was greater than 50.1 µM in each case.
For `CN(C)C1(CN)Cc2ccccc2C1`, the IC50 in assay [1] is 81.5 µM; in assay [2] it was 127 µM.
On to `CCn1ccc(C(=O)NCc2ccco2)n1`, for which the IC50 in assay [1] is 232 µM; in assay [2] it was greater than 501 µM.
With `CCC(N)C(=O)Nc1ccc2c(c1)CCC2` (stereo not given), the figures for the IC50 in assay [1] and in assay [2] were 170 µM and 176 µM, respectively.
In the case of `COc1cc(OC)cc(N2CCC(N)C2)c1` (stereo not given), the IC50 in assay [1] was 232 µM; in assay [2] it was 213 µM.
As for `Cc1cc(C(=O)Nc2ccc3c(c2)CCCN3)on1`, the figures for the IC50 in assay [1] and in assay [2] were 150 µM and greater than 501 µM, respectively.
On to `CCc1nc(CCN)cs1`, for which the values for the IC50 in assay [1] and in assay [2] were 113 µM and 152 µM, respectively.
As for `CC(=O)c1ccc(C(=O)Nc2ccnc(N(C)C)n2)cc1`, the IC50 in assay [1] and in assay [2] was greater than 50.1 µM throughout.
As to `CN(C)c1cc(Cn2cnc3sccc3c2=O)ccn1`, the IC50 in assay [1] and in assay [2] was greater than 501 µM each time.
With `Cc1nc(N2CCCC2)nc2c1CCN(Cc1ccoc1)CC2`, the IC50 in assay [1] is 22.8 µM; in assay [2], 14.7 µM.
With `O=C(c1ccc(Cl)o1)N1CCN(Cc2ccco2)CC1`, the results for the IC50 in assay [1] and in assay [2] were 102 µM and 69.4 µM, respectively.
Turning to `O=C(Nc1cccc(-n2cccn2)c1)N1CCSCC1`, the IC50 in assay [1] and in assay [2] was greater than 501 µM each time.
As to `Cn1nccc1C(=O)NC1CCc2ccccc2OC1` (stereo not given), the IC50 in assay [1] and in assay [2] was greater than 501 µM in each case.
Regarding `O=C(CN(C1=NCCCC1)c1ccccc1)c1ccc(OC(F)F)cc1`, the IC50 is 39.3 µM in assay [1] and 24.6 µM in assay [2].
Taken in the same sequence, the figures for `CCOC(=O)c1ccccc1N1C(=O)C=CC1=O` were 60.4 µM and 83.7 µM.
Regarding `CSCc1cc(F)ccc1CNC(=O)c1cn[nH]c1C`, the IC50 in assay [1] and in assay [2] was greater than 501 µM throughout.
Consider `COc1cccc(CNc2ccccc2CO)n1`, for which the IC50 in assay [1] and in assay [2] was greater than 501 µM in each case.
Turning to `CC(=O)c1cccc(OCC(=O)NC2CCCC2)c1`, the IC50 in assay [1] is 290 µM; in assay [2], 182 µM.
Taken in the same sequence, the figures for `CC(C)Oc1ccc(CN)cc1` were 284 µM and greater than 501 µM.
On to `O=C(Nc1nc(-c2ccsc2)ns1)C1CCCN1` (stereo not given), for which the IC50 in assay [1] and in assay [2] was greater than 501 µM in each case.
Turning to `CCCc1ccc2oc(C(=O)N3CCN(CCOC)CC3)c(C)c2c1`, the IC50 in assay [1] was 4.94 µM; in assay [2] it was 4.11 µM.
For `CCC(C)(C)NC(=O)c1nnn(-c2ccccc2)c1C`, the IC50 is 311 µM in assay [1] and 282 µM in assay [2].
Taken in the same sequence, the figures for `CC(CNC(=O)c1cnccn1)Oc1cccc(Br)c1` (stereo not given) were 0.211 µM and greater than 50.1 µM.
Turning to `CCc1c(C(=O)NCC(=O)OCC2CC2)cnn1-c1ccc(C)cc1`, the IC50 in assay [1] is 45.9 µM; in assay [2], 18.9 µM.
On to `CC(C)NC(=O)Nc1cc(C(F)(F)F)c[nH]c1=O`, for which the values for the IC50 in assay [1] and in assay [2] were 92.8 µM and 109 µM, respectively.
`CN(C)[C@H]1C[C@@H](Cc2cc(-c3ccc(F)cc3)on2)C1(C)C`: the IC50 in assay [1] and in assay [2] was greater than 50.1 µM in each case.
As to `CCC(N)c1ccccc1OC` (stereo not given), the IC50 in assay [1] is 267 µM; in assay [2], greater than 501 µM.
The like results for `CC(C)COc1cncc(N(C)C2CCN(c3ncccn3)CC2)n1` were, in that order, 30 µM and 40.6 µM.
Consider `Cc1ccc(OC2CN(C(=O)[C@H](N)C(C)C)C2)cc1`, for which the IC50 in assay [1] was 393 µM; in assay [2], 236 µM.
Take `CC(CNC(=O)c1ccncc1)c1ccccc1` (stereo not given): the figures for the IC50 in assay [1] and in assay [2] were 189 µM and greater than 501 µM, respectively.
In the case of `CCSC1=Nc2c(cnn2-c2ccc(Cl)cc2)C2=NCCCN12`, the IC50 in assay [1] is 12.8 µM; in assay [2], 17.1 µM.
For the compound `c1cc2c(cc1C1=NN=C(NC3CC3)SC1)OCCO2`, the IC50 in assay [1] was 158 µM; in assay [2], 160 µM.
For `Cc1ccc(OCCSCCn2nc3ccccn3c2=O)cc1`, the IC50 in assay [1] and in assay [2] was greater than 50.1 µM in each case.
